The values that follow are results of earlier work, collected in patent US5411479A, “Cancer treatment and catheter for use in treatment” (priority 1993, dated 1995).

For data set [1], the system named is colon cancer metastatic to the liver. Particulars: for effectiveness of arterial infusion: drug delivered directly to liver tumor cells.
For data set [2] the following is noted: for Local hepatobiliary toxicities (hepatitis, cholecystitis, biliary sclerosis, stenosis and stricture): conventional HAI; for Systemic toxicity of HAI chemotherapy: conventional doses; for Hepatitis (nausea, vomiting, abdominal pain, jaundice, elevated liver transaminases and bilirubin): in vivo.
The test system of a further data set is hepatocellular tumor. Conditions: for activity in hepatocellular tumor: systemic chemotherapy, Phase II trials.

As to `O=c1[nH]cc(F)c(=O)[nH]1` [5-FU, 5-fluorouracil], in data set [1], the “effectiveness of arterial infusion” value is given as “increases their effectiveness”. In addition, in data set [1] (in vivo), the dose-response effect entry is given as “displays a dose-response effect”. Moreover, in data set [2], the “Local hepatobiliary toxicities (hepatitis, cholecystitis, biliary sclerosis, stenosis and stricture)” value is “up to 50 % of the patients”; the “Systemic toxicity of HAI chemotherapy” value is reported as “has not been a major problem”; the “Hepatitis (nausea, vomiting, abdominal pain, jaundice, elevated liver transaminases and bilirubin)” value is given as “has occurred”. Also, in the data set with hepatocellular tumor, the “activity in hepatocellular tumor” value is reported as “significant activity”.
Consider `O=c1[nH]c(=O)n([C@H]2C[C@H](O)[C@@H](CO)O2)cc1F` [FUDR, floxuridine], for which the “effectiveness of arterial infusion” value in data set [1] is “increases their effectiveness”. In addition, in data set [2], the “Local hepatobiliary toxicities (hepatitis, cholecystitis, biliary sclerosis, stenosis and stricture)” value is recorded as “up to 50 % of the patients”; the “Systemic toxicity of HAI chemotherapy” value is listed as “has not been a major problem”; the “Hepatitis (nausea, vomiting, abdominal pain, jaundice, elevated liver transaminases and bilirubin)” value is recorded as “has occurred”.
`COc1cccc2c1C(=O)c1c(O)c3c(c(O)c1C2=O)C[C@@](O)(C(=O)CO)C[C@@H]3O[C@H]1C[C@H](N)[C@H](O)[C@H](C)O1` [doxorubicin]: the objective therapeutic responses entry with hepatocellular tumor (doxorubicin 60 mg/m^2 every 3 weeks) is “approximately 20 % of the patients”. In the data set on hepatocellular tumor (doxorubicin 75 mg/m^2 every 3 weeks), the toxicity result is on record as “Substantial toxicity”. Moreover, the objective response with hepatocellular tumor (doxorubicin 75 mg/m^2 every 3 weeks, East African blacks, of 50 patients treated) is on record as 22 patients. For the same molecule, the complete response with hepatocellular tumor (doxorubicin 75 mg/m^2 every 3 weeks, among 22 objective responses, 50 patients treated) was 3 patients. The “activity in hepatocellular tumor” value in the data set on hepatocellular tumor is listed as “significant activity”.
